This data set can be described thus: recombinant UMI read abundance after kanamycin selection (control-corrected) (log10(CPM+1)); higher = more efficient recombination; extreme values may be limits of the assay; sequences stand for … in AGTGCAGAGAAAATCGGCCAGTTTTCTCTGCCTGCAGTCCGCATGCCGTGGGACCCCTTGGGTTCTAACCTGTTGCCTAGATTTATGCAGCGGACTGCCTTTCTCCCAAAGTGATAAACCGG…AGGTTGGTTTCACT; site = the 11-nt donor. The method in brief: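 The measure is log10(CPM+1) for recombinant UMIs. These were PCR-amplified across the donor–target junction and sequenced after Escherichia coli carrying a donor and donor-binding-loop pair library and a target plasmid with T7-inducible IS621 bridge recombinase was plated on IPTG (0.07 mM) plus kanamycin or unselected. CPM were averaged over two replicates and scaled by control-derived factors.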
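Also: IS621 bridge recombinase in Escherichia coli cells against a fixed T5 target plasmid.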

Turning to “GATCGAGCATGGACCGGTTTTCCCGGTAATCCGTATTTGCA (site GATCGAGCTTG)”, the “recombinant UMI read abundance (log10)” value worked out at 1.04. In the case of “GATCGAGCATGGACCGGTTTTCCCGGTAATCCGTATTTGCA (site GCTCGAGCTTG)”, the “recombinant UMI read abundance (log10)” value stood at 1.17. Turning to “GATCGAGCATGGACCGGTTTTCCCGGTAATCCGTATTTGCA (site GGTCGAGCTTG)”, the “recombinant UMI read abundance (log10)” value stood at 1.15.

On to “GATCGAGCATGGACCGGTTTTCCCGGTAATCCGTATTTGCA (site GTTCGAGCTTG)”, for which the “recombinant UMI read abundance (log10)” value worked out at 1.58. For the sequence “GATCGTGCATGGACCGGTTTTCCCGGTAATCCGTATTTGGC (site GATCGTGCTGC)”, the “recombinant UMI read abundance (log10)” value was 1.18. With “GATCTAACATGGACCGGTTTTCCCGGTAATCCGTATTTGTC (site GATCTAACTGA)”, the “recombinant UMI read abundance (log10)” value is 0. Regarding “GATCTGCCATGGACCGGTTTTCCCGGTAATCCGTATTTGAT (site GATCTGCCTAT)”, the “recombinant UMI read abundance (log10)” value is 0.0121. Regarding “GATGAGACATGGACCGGTTTTCCCGGTAATCCGTATTTGAA (site GATGAGACTTT)”, the “recombinant UMI read abundance (log10)” value is 1.82. “GATTAACCATGGACCGGTTTTCCCGGTAATCCGTATTTGCT (site GATTAACCTAG)”: the “recombinant UMI read abundance (log10)” value stood at 0. As for “GATTAACCATGGACCGGTTTTCCCGGTAATCCGTATTTGCT (site GATTACCCTAG)”, the “recombinant UMI read abundance (log10)” value was 0. For “GATTAACCATGGACCGGTTTTCCCGGTAATCCGTATTTGCT (site GATTAGCCTAG)” the value was 0; for “GATTAACCATGGACCGGTTTTCCCGGTAATCCGTATTTGCT (site GATTATCCTAG)”, 0.0295; for “GATTAGCCATGGACCGGTTTTCCCGGTAATCCGTATTTGCT (site GATTAACCTAG)”, 0. Consider “GATTAGCCATGGACCGGTTTTCCCGGTAATCCGTATTTGCT (site GATTACCCTAG)”, for which the “recombinant UMI read abundance (log10)” value came to 0. For “GATTAGCCATGGACCGGTTTTCCCGGTAATCCGTATTTGCT (site GATTAGCCTAG)” the value was 0; for “GATTAGCCATGGACCGGTTTTCCCGGTAATCCGTATTTGCT (site GATTATCCTAG)”, 0. Turning to “GATTATACATGGACCGGTTTTCCCGGTAATCCGTATTTGCT (site GATTATACTAG)”, the “recombinant UMI read abundance (log10)” value stood at 1.87. As to “GATTATACATGGACCGGTTTTCCCGGTAATCCGTATTTGCT (site GATTATCCTAG)”, the “recombinant UMI read abundance (log10)” value was determined as 0. Take “GATTATACATGGACCGGTTTTCCCGGTAATCCGTATTTGCT (site GATTATGCTAG)”: the “recombinant UMI read abundance (log10)” value was 0.

In the case of “GATTATACATGGACCGGTTTTCCCGGTAATCCGTATTTGCT (site GATTATTCTAG)”, the “recombinant UMI read abundance (log10)” value came out at 0. The result for “GATTATCCATGGACCGGTTTTCCCGGTAATCCGTATTTGCA (site GATTATCCTAG)” reads 0. For “GATTATCCATGGACCGGTTTTCCCGGTAATCCGTATTTGCA (site GATTATCCTCG)” the value was 0. For “GATTATCCATGGACCGGTTTTCCCGGTAATCCGTATTTGCA (site GATTATCCTGG)” the value was 0; for “GATTATCCATGGACCGGTTTTCCCGGTAATCCGTATTTGCA (site GATTATCCTTG)”, 0; for “GATTATCCATGGACCGGTTTTCCCGGTAATCCGTATTTGCG (site GATTATCCTAG)”, 0. Turning to “GATTATCCATGGACCGGTTTTCCCGGTAATCCGTATTTGCG (site GATTATCCTCG)”, the “recombinant UMI read abundance (log10)” value was 0.363. In the case of “GATTATCCATGGACCGGTTTTCCCGGTAATCCGTATTTGCG (site GATTATCCTGG)”, the “recombinant UMI read abundance (log10)” value was determined as 0. Turning to “GATTATCCATGGACCGGTTTTCCCGGTAATCCGTATTTGCG (site GATTATCCTTG)”, the “recombinant UMI read abundance (log10)” value was determined as 0. In the case of “GATTATTCATGGACCGGTTTTCCCGGTAATCCGTATTTGCT (site GATTATACTAG)”, the “recombinant UMI read abundance (log10)” value was determined as 0.

Values taken from the supplement of paper PMC11208160.
